Experiments:
[1] = tested on: soybean cells transformed with pMON73691
Description: Mature seeds of soybean [Glycine max (L.) Merrill] cv. A3525 were imbibed, sterilized, and germinated at room temperature as set forth below. Other examples of soybean genotypes that can readily be used include, but are not limited to, Jack, Williams, Bert, Thorne, Granite, Lambert, Chapman, and Kunitz. Briefly, dry seeds (about 770 g) were soaked for 3 min in 2 L of 200 ppm sodium hypochlorite solution made from commercially available Clorox. The solution was drained and the seeds were set side for about 2 h. About 2 L of bean sterilization/germination medium was then added to the seeds. After about 9-10 h, seeds were ready for hand excision of explants. The bean germination medium contained the following in mg/L—NH4NO3: 240, KNO3: 505, CaCl2.2H2O: 176, MgSO4.7H2O: 493, KH2PO4: 27, H3BO3: 1.86, Na2MoO4.2H2O: 0.216, MnSO4.H2O: 5.07, ZnSO4. 7H2O: 2.58, FeSO4.7H2O: 2.502, KI: 0.249, Na2EDTA. 2H2O: 3.348, CuSO4.5H2O: 0.0008, CoCl2.6H2O: 0.0008, B1: 1.34, B3: 0.5, B6: 0.82, Bravo (75% WP; Diamond Shamrock Company, Cleveland, Ohio): 30, Captan (50% WP; Micro Flo Company, Lakeland, Fla.): 30, Cefotaxime: 125, and Sucrose: 25000, pH 5.8).
The binary vectors described above were mobilized into disarmed Agrobacterium tumefaciens strain C58 (ABI). Agrobacterium inoculum for infection was prepared as follows: 250 ml of LB medium (Luria-Bertani; Difco, Detroit, Mich.) containing 50 mg/l kanamycin (Sigma, St. Louis, Mo.) and 75 mg/l spectinomycin (Sigma, St. Louis, Mo.) was inoculated with 0.5 ml of Agrobacterium stock in glycerol (Acros Organics, Geel, Belgium) and was shaken at 200 rpm at 28° C. for approximately 20-22 h until the OD660 reached 0.8 to 1.0. The Agrobacterium broth was then centrifuged for 25 min at 3500 rpm (about 3565 g) at 2-4° C. After removing the supernatant, the Agrobacterium pellet was re-suspended in inoculation medium containing ⅖× of the macro nutrients, 1/10× of the micro nutrients and vitamins of Gamborg's B5 medium, supplemented with 3.9 g/l MES (Sigma, St. Louis, Mo.), and 30 g/l glucose (PhytoTechnology Laboratories, Shawnee Mission, Kans.), pH 5.4. Lipoic acid (Sigma, St. Louis, Mo.) was added to the Agrobacterium suspension to a final concentration of 0.25 mM after the density of the Agrobacterium cell suspension was adjusted to an OD660 of 0.30 to 0.35.
Agrobacterium-infection and co-cultivation of the explants were conducted as follows: about 100 excised explants were dispensed into the lid of a sterile plastic culture vessel PLANTCON (MP Biomedicals, LLC, Irvine, Calif.). Five ml of Agrobacterium inoculum was added to the explants in each PLANTCON lid. The explants were then sonicated for 20 sec in a sonicator (Ultrasonic Multi Cleaner, Model W-113, Honda, Japan). One piece of Whatmann #1 filter paper (Whatman Inc., Clifton, N.J.) cut to the size of the PLANTCON bottom was placed in the bottom part of the PLANTCON. The explants were transferred from the lid onto the filter paper with the Agrobacterium inoculum. The PLANTCON s were then incubated in a Percival incubator at 16 h light (at about 85-90 μE) and 8 h dark photoperiod and at 23° C. for 2 to 4 d for co-cultivation.
After a co-cultivation period of 2-4 days, explants were first cultured on a medium without dicamba (delay medium) for 3-5 d before being transferred to the selection medium with dicamba. Until transfer from delay medium to selection medium, the explants were kept in the same PLANTCON used for co-cultivation, but 10 or 12 ml of the delay medium was added to each PLANTCON. Alternatively, the explants were transferred to new PLANTCONs, each containing one piece of autoclaved felt (Jo-Ann Fabrics & Crafts, Madison, Wis.)) and 30 ml of the delay medium.

[2] = tested on: soybean explants inoculated with Agrobacterium harboring pMON73691 (DMO and GFP genes); test: Selection of pMON73691-inoculated soybean explants with 2,4-D or dicamba in liquid medium, GFP+ buds; assay type: cell-based; conditions: selective agent 0.01 mg/L; 375 explants inoculated; pMON73691
Description: Freshly isolated soybean explants (mature embryo axes without cotyledons) were inoculated with Agrobacterium strain ABI harboring pMON73691 (containing DMO and GFP genes). After 3-d co-culture with Agrobacterium at 23° C. and a photoperiod of 16-h light and 8-h dark, the explants were cultured in liquid delay medium which contained modified woody plant medium supplemented with 5 mg/l BAP, 200 mg/l carbenicillin, 200 mg/l cefotaxime and 100 mg/l ticarcillin. The explants were in the delay medium for 4 days. They were then transferred to liquid selection medium in PLANTCONs. The selection medium was the same as the delay medium except of addition of various levels of 2,4-D (0.01, 0.1, 1.0 or 2.0 mg/L) or 0.01 mg/L dicamba as shown in Table 9 below. Each PLANTCON contained 60 ml of the selection medium and one piece of foam sponge with 5 slits. Twenty-five explants were evenly inserted into the slits. The cultures were maintained at 28° C. and a photoperiod of 16-h light and 8-h dark, and were examined periodically under a […] equipped for detecting GFP expressing tissues.

[3] = tested on: Wild type Arabidopsis var. Columbia; conditions: 1.0 mg/L in the culture medium; FIG. 8
Description: The susceptibility of Arabidopsis to different levels of dicamba was first tested. Wild type Arabidopsis var. Columbia seeds were plated on plant tissue culture medium containing various levels of dicamba. […] Arabidopsis plants were then transformed with the constructs containing DMO polynucleotides using the floral dip method (Clough and Bent, 1998). R1 seeds were plated on the culture medium containing up to 4 mg/L of dicamba.

## COc1c(Cl)ccc(Cl)c1C(=O)O [dicamba, 3,6-dichloro-o-anisic acid]
[1]; 0.01 mg/l in selection medium, from 800 explants, pMON73691
  dicamba-tolerant shoots harvested: 30
[1]; 0.02 mg/l in selection medium, pMON73691
  tolerant shoots harvested: few tolerant shoots were harvested
[1]; 0.05 or 0.1 mg/l in selection medium, pMON73691
  tolerant shoots obtained: no tolerant shoots were obtained
[1]; of 30 shoots selected on 0.01 mg/l
  tolerant shoots that formed roots on rooting medium and were transferred to soil: Twelve
[1]; of ten tested, selected on 0.01 mg/l
  plants positive for DMO-encoding polynucleotides: seven
[1]; soybean explants, pMON73691
  concentration most efficacious for selecting dicamba-tolerant shoots: ≤ 0.01 mg/L
[2]
  # Explants w/GFP + buds/young shoots at 48DAI: 28
[3]
  susceptibility of wild type Arabidopsis: quite susceptible
